Results: PMC5705954, “Investigation of Non-Covalent Interactions of Aflatoxins (B1, B2, G1, G2, and M1) with Serum Albumin” (Toxins, 2017)
Like-named read-outs stand apart in the source and are kept apart here.

Key:
[1] = molecular target: warfarin-HSA interaction (Sudlow's Site I) (Homo sapiens, UniProt P02768); type: binding
[2] = molecular target: T1, human serum albumin (HSA) (Homo sapiens, UniProt P02768); experiment: Fluorescence quenching of HSA by aflatoxins; type: binding; set-up: purchased Sigma-Aldrich; details: pH 7.4
Method: In order to characterize aflatoxin-HSA interactions, fluorescence quenching studies were performed. Increasing aflatoxin concentrations (0–10 μM) were added to a standard amount of HSA (2 μM) then fluorescence emission spectra of HSA were recorded (λexc = 280 nm). […] To exclude the possible involvement of the inner filter effect, fluorescence emission intensities were corrected based on the absorbance of aflatoxins (Equation (1)). […].
Fluorescence measurements were performed employing Hitachi F-4500 fluorescence spectrophotometer. UV-Vis spectra were recorded applying Specord Plus 210 (Analytic Jena AG, Jena, Germany) spectrophotometer. All measurements were carried out at 25 °C.
During fluorescence quenching experiments, emission intensities of albumin were determined in the presence of 2 μM albumin with and without aflatoxins (0–10 μM) using 280 and 334 nm as excitation and emission wavelengths, respectively. Inner filter effects of aflatoxins were eliminated applying the following equation [33]:(1) Icor=Iobs×e^(Aexc+Aem)/2 where Icor and Iobs are the corrected and observed fluorescence emission intensities, respectively; while Aexc and Aem are the absorption of aflatoxins at 280 and 334 nm, respectively.
Complex formations of aflatoxins with albumins were investigated applying the Stern-Volmer equation:(2) I0/I=1+KSV×[Q] where I and I0 denote the fluorescence intensities of albumin with and without aflatoxins, respectively. KSV (with the unit of dm^3/mol) is the Stern-Volmer quenching constant and [Q] is the molar concentration of aflatoxins.
Association constants (Ka) and number of binding sites (n) were determined by linear fitting, employing the double logarithmic Stern-Volmer equation [33]:(3) log(I0−I)/I=logKa+n×log[Q] where I and I0 denote the fluorescence intensities of albumin with and without aflatoxins, respectively; while [Q] is the molar concentration of aflatoxins.
Thereafter, binding constants of aflatoxin-albumin complexes were quantified by Hyperquad2006 program package, assuming 1:1 stoichiometry, (4) I=I0+(IHG−I0)/2⋅[H]0⋅([H]0+[G]0+1/K−([H]0+[G]0+1/K)^2−4⋅[H]0⋅[G]0) where, I0 and I denote the emission intensities of albumin at 334 nm in the absence and presence of aflatoxins, respectively; IHG is the emission intensity of pure aflatoxin-albumin complex at 334 nm (calculated by the Hyperquad2006); K denotes the binding constant (with the unit of dm^3/mol); [H]0 and [G]0 are the total concentrations of albumin and aflatoxin, respectively.

rat serum albumin (RSA) = rat serum albumin (RSA) (Rattus norvegicus, UniProt P02770); type: binding; details: pH 7.4
[3] = molecular target: porcine serum albumin (PSA) (Sus scrofa, UniProt P08835); type: binding; details: pH 7.4
[4] = molecular target: T1, human serum albumin (HSA); experiment: Thermodynamic studies (van't Hoff) of complex formation with HSA; type: binding; set-up: purchased Sigma-Aldrich
Method: In order to investigate the temperature dependence of AFB1-HSA interaction, binding constants were determined between 25 and 40 °C. […] Using the temperature-dependence of the stability constants, the thermodynamic parameters associated to the interaction of AFB1 with HSA was also determined using the van’t Hoff equation (Equation (5)). […]. This value is within the typical range of non-covalent interactions. ΔH and ΔS values of the AFB1-HSA complex formation were −10.48 kJ mol^−1 and 55.1 JK^−1 mol^−1, respectively. Comparing these values with the parameters obtained for previously examined mycotoxin-albumin complexes, namely citrinin-HSA and zearalenone-HSA (Table 1), we can conclude that the smaller enthalpy change is associated with higher entropy gain in agreement with the enthalpy-entropy compensation. […]
Fluorolog τ3 spectrofluorometric system (Jobin-Yvon/SPEX) was applied during thermodynamic studies using 280 nm excitation wavelength. […] The binding constants were determined by the Hyperquad2006 program package (Equation (4)). The enthalpy and entropy changes of complex formation between AFB1 and HSA molecules were calculated as follows: the logarithms of binding constants (logK) at different temperatures were plotted against the reciprocal temperature according to the van’t Hoff equation. […]

[5] = molecular target: bovine serum albumin (BSA) (Bos taurus, UniProt P02769); type: binding; details: pH 7.4
[6] = molecular target: T1, human serum albumin (HSA); set-up: purchased Sigma-Aldrich; details: cited from earlier work
[7] = molecular target: T1, human serum albumin (HSA); details: cited from earlier work
[8] = previously reported data ref 20
[9] = previously reported data ref 16

porcine serum albumin (PSA), sequence (P08835 25-607 limits assumed): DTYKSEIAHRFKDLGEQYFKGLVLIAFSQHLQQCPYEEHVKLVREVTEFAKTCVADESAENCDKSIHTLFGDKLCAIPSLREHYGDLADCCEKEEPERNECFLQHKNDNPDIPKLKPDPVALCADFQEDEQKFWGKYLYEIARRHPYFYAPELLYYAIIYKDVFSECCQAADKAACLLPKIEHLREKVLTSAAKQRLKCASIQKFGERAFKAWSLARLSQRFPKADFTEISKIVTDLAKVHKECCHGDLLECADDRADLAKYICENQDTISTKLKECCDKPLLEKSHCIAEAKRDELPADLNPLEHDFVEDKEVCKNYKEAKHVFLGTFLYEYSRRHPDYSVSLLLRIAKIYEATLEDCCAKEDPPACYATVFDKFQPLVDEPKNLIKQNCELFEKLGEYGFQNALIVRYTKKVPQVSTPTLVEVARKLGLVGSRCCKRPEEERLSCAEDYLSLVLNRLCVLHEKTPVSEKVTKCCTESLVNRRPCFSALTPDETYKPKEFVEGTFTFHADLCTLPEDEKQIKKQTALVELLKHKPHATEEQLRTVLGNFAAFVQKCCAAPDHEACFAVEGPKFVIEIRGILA
bovine serum albumin (BSA), sequence (P02769 25-607 limits assumed): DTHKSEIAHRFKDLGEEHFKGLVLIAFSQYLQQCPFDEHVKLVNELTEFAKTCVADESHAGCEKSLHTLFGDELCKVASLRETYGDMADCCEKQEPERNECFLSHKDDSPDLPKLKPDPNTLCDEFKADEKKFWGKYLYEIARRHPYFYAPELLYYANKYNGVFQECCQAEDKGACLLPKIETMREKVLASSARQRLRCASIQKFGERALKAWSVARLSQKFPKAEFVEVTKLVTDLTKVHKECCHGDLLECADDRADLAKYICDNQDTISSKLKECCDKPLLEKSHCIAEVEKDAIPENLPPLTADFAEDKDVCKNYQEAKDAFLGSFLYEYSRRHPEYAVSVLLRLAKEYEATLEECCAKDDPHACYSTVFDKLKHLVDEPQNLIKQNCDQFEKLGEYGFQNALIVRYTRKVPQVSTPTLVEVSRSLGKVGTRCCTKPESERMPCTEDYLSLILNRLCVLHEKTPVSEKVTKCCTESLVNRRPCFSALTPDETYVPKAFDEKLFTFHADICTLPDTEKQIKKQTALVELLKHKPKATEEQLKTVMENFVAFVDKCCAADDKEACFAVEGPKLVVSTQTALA
T1 sequence (P02768 25-609): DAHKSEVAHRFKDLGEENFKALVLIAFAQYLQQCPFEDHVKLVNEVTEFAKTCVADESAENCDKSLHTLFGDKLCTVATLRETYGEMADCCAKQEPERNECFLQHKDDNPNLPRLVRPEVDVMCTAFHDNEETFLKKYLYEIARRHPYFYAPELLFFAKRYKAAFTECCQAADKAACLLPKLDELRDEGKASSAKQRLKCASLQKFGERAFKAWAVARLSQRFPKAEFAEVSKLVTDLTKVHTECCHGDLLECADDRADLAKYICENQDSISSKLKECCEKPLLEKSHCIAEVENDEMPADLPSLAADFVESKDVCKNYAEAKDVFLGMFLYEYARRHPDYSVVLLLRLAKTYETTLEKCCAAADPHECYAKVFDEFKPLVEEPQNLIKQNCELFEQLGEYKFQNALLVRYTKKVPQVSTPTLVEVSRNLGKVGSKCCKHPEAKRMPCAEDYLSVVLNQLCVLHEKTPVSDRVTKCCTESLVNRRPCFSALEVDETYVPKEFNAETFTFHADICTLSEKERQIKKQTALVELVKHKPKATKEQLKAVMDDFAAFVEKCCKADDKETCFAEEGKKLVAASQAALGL
warfarin-HSA interaction (Sudlow's Site I), sequence (P02768 25-609 limits assumed): as the sequence (P02768 25-609) above
rat serum albumin (RSA), sequence (P02770 25-608 limits assumed): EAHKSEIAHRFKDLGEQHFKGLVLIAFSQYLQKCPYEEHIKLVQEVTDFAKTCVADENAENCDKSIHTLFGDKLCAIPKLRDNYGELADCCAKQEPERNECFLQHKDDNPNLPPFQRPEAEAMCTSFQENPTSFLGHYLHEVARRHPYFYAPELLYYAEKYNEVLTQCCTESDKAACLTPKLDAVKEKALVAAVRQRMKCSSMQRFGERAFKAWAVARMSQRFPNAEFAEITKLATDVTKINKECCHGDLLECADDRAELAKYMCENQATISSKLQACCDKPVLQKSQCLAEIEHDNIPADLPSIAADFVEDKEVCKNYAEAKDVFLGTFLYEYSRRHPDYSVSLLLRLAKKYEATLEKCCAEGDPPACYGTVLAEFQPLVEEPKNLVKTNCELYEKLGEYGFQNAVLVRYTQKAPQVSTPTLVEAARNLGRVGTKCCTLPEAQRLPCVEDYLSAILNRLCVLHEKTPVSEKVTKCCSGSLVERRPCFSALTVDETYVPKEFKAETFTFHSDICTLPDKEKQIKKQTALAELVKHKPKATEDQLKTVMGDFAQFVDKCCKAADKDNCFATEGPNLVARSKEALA

Compound	effect on fluorescence signal of HSA-bound warfarin at 379 nm (displacement of WAR from HSA) [1]	logK (binding constant) [2]	logKSV (Stern-Volmer quenching constant) [2]	logKa (association constant) [2]	n (number of binding sites) [2]	further results
COc1cc2c(c3oc(=O)c4c(c13)CCOC4=O)[C@@H]1CCO[C@@H]1O2 [AFG2, aflatoxin G2]	considerably decreased the fluorescence intensity of WAR at 379 nm	4.34 ± 0.01	3.96 ± 0.04	4.04 ± 0.07	1.017 ± 0.025	–
COc1cc2c(c3oc(=O)c4c(c13)CCC4=O)[C@H]1C=CO[C@H]1O2 [AFB1, aflatoxin B1]	significant decrease of the fluorescence signal at 379 nm	4.65 ± 0.01	4.44 ± 0.06	4.46 ± 0.08	1.005 ± 0.029	logK (binding constant) (rat serum albumin (RSA)): 4.91 ± 0.01; logKSV (Stern-Volmer quenching constant) (rat serum albumin (RSA)): 4.82 ± 0.01; logKa (association constant) (rat serum albumin (RSA)): 4.90 ± 0.11; n (number of binding sites) (rat serum albumin (RSA)): 0.998 ± 0.051; logK (binding constant) [3]: 4.62 ± 0.01; logKSV (Stern-Volmer quenching constant) [3]: 4.45 ± 0.00; logKa (association constant) [3]: 4.52 ± 0.10; n (number of binding sites) [3]: 1.023 ± 0.034; ΔG (298.16 K) of complex formation with HSA [4]: -6.429 kcal/mol; ΔH of complex formation with HSA [4]: -2.505 kcal/mol; logK (binding constant) [5]: 4.63 ± 0.01; logKSV (Stern-Volmer quenching constant) [5]: 4.41 ± 0.06; logKa (association constant) [5]: 4.44 ± 0.01; n (number of binding sites) [5]: 1.006 ± 0.015
COc1cc2c(c3oc(=O)c4c(c13)CCC4=O)[C@@H]1CCO[C@@H]1O2 [AFB2, aflatoxin B2]	considerably decreased the fluorescence intensity of WAR at 379 nm	4.55 ± 0.01	4.21 ± 0.02	4.40 ± 0.08	1.054 ± 0.000	–
COc1cc2c(c3oc(=O)c4c(c13)CCOC4=O)C1C=COC1O2 (stereo not shown) [AFG1, aflatoxin G1]	Very similar spectroscopic changes	4.58 ± 0.01	4.33 ± 0.04	4.43 ± 0.03	1.020 ± 0.019	–
COc1cc2c(c3oc(=O)c4c(c13)CCC4=O)[C@@]1(O)C=CO[C@H]1O2 [AFM1, aflatoxin M1]	considerably decreased the fluorescence intensity of WAR at 379 nm	4.52 ± 0.01	4.28 ± 0.01	4.26 ± 0.00	1.004 ± 0.013	–
C[C@H]1CCCC(=O)CCC/C=C/c2cc(O)cc(O)c2C(=O)O1 [zearalenone]	–	–	–	–	–	ΔG (298.16 K) of complex formation with HSA [6, 8]: -6.946 kcal/mol; ΔH of complex formation with HSA [6, 8]: -7.192 kcal/mol; ΔS of complex formation with HSA [6, 8]: −3.50 JK^−1 mol^−1
CN(C)c1ccc(N=Nc2ccc(S(=O)(=O)[O-])cc2)cc1.[Na+] [MO, methyl orange]	–	–	–	–	–	logK of MO-HSA complex [7]: ~ 5
CC1=C2C(=CO[C@H](C)[C@H]2C)C(O)=C(C(=O)O)C1=O [citrinin]	–	–	–	–	–	ΔG (298.16 K) of complex formation with HSA [6, 9]: -7.161 kcal/mol; ΔH of complex formation with HSA [6, 9]: -5.772 kcal/mol; ΔS of complex formation with HSA [6, 9]: 20.90 JK^−1 mol^−1
